Source: patent publication US8557858B2, “(E)-N-(2-amino-phenyl)-3-{1-[4-(l-methyl-1H-pyrazol-4-yl)-benzenesulfonyl]-1H-pyrrol-3-yl}-acrylamide salts” (4SC AG, priority 2008, dated 2013)

What was measured:
Type in all cases: physicochemical
Settings in all cases: compared to the known hydrochloride salt
[1] = Dissolution behavior / dissolution velocity of the salts
Solubility of the salt = experiment: Solubility of the salt
Stability of the salts = experiment: Stability of the salts

Compound: Cc1ccc(S(=O)(=O)O)cc1.Cn1cc(-c2ccc(S(=O)(=O)n3ccc(/C=C/C(=O)Nc4ccccc4N)c3)cc2)cn1 [toluenesulfonate salt, (E)-N-(2-Amino-phenyl)-3-{1-[4-(1-methyl-1H-pyrazol-4-yl)-benzenesulfonyl]-H-pyrrol-3-yl}-acrylamide toluene-4-sulfonate]
- dissolution velocity [1]: particularly high
- solubility (Solubility of the salt): high
- stability (Stability of the salts): enhanced
